Measured values reported in patent US20230278954A1, “BRANCHED LIPID COMPOUDS” (priority 2020, published 2023).
“And” between values parts separate entries of the source, which are not always exact repeats. Equal values may be shown once.

Key:
human TLR2 = molecular target: T1, human TLR2 (Homo sapiens, UniProt O60603); assay: Activation of human TLR2 III: HEK-Blue hTLR2 dose response (SEAP reporter); format: cell-based; conditions: for optical density (650 nm): screenings 1-3; for stimulatory / agonist activity for hTLR2 (in words) / fold induction at 120 fg/mL / fold induction at 490 fg/mL / fold induction at 1.95 pg/mL / fold induction at 7.81 pg/mL / fold induction at 31.25 pg/mL / fold induction at 0.000125 µg/mL / fold induction at 0.0005 µg/mL: HEK-Blue hTLR2; for fold induction at 120 fg/mL / fold induction at 490 fg/mL / fold induction at 1.95 pg/mL / fold induction at 7.81 pg/mL / fold induction at 31.25 pg/mL / fold induction at 0.000125 µg/mL / fold induction at 0.0005 µg/mL: read-out: Fold Induction (ratio of average induced value to average non-induced value); for EC50: agonism of hTLR2, HEK-Blue hTLR2
T1 construct: expressed in transfected cells; host or cells: HEK-Blue hTLR2 cells
T1 sequence (O60603 21-784): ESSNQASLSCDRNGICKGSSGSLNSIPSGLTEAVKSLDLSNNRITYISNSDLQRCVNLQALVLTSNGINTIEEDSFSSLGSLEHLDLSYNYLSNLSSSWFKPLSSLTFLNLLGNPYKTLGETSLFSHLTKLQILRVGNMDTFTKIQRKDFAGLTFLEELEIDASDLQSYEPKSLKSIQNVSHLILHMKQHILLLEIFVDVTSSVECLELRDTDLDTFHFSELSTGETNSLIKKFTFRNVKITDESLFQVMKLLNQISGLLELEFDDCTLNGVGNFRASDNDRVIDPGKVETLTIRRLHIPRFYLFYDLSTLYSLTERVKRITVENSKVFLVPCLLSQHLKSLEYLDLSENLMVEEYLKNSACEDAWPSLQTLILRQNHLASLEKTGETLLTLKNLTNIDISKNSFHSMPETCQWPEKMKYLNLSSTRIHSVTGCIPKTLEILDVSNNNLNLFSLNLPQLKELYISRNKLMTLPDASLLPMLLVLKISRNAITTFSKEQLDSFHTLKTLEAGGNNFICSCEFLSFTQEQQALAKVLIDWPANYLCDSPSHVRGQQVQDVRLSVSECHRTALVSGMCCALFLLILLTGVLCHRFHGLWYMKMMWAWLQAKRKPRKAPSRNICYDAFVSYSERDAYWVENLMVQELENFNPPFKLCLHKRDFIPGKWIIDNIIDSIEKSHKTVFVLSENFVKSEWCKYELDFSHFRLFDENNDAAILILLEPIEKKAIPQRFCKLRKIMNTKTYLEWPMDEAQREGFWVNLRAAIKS
T1 sequence (Q9Y2C9 32-796 partner): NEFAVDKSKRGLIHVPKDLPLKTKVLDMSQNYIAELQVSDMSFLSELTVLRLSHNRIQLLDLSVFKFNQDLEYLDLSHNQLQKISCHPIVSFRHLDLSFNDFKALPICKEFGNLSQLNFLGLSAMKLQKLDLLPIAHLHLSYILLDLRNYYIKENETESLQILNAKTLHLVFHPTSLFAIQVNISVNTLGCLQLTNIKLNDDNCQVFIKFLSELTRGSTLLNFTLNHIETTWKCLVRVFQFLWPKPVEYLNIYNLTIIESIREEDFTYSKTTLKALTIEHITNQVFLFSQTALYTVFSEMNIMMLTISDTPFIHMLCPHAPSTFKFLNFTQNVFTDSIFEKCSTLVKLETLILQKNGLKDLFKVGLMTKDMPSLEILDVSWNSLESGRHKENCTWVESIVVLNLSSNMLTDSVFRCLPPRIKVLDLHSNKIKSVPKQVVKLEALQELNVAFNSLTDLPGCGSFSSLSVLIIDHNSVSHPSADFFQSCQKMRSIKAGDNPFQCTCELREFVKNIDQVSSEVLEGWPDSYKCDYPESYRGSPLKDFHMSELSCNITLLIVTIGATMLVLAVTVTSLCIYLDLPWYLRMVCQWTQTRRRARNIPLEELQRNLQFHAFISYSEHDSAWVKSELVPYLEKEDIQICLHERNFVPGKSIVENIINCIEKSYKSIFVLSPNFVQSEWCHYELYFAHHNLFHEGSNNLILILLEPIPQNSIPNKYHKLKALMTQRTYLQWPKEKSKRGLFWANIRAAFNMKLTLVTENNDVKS
Protocol: (§1) Toll-Like Receptor (TLR) stimulation is tested by assessing NF-KB activation in the TLR expressing cell lines. HEK-Blue h/mTLR2 cells have been stably transfected with human or mouse TLR2 and CD14. The activity of the test articles are tested on human and mouse TLR2, as potential agonists. The test articles are evaluated at seven concentrations and compared to control ligands (see list below). These steps are performed in triplicate.
(§2) A 5 µg/mL working stock was then prepared for each compound from the 20 µg/mL dilution in sterile PBS. Starting from the 5 µg/mL working stock, a series of six 1:4 serial dilutions were made by mixing 100 µL of the previous highest dilution with 300 µL sterile PBS.
(§3) The secreted embryonic alkaline phosphatase (SEAP) reporter is under the control of a promoter inducible by the transcription factor NF-κB. This reporter gene allows the monitoring of signaling through the TLR, based on the activation of NF-κB. In a 96-well plate (200 µL total volume) containing the appropriate cells (50,000 - 75,000 cells/well), 20 µL of the test article or the positive control ligand (HKLC) is added to the wells. The media added to the wells is designed for the detection of NF-κB induced SEAP expression. After a 16-24-hour incubation the optical density (OD) is read at 650 nm on a Molecular Devices SpectraMax 340PC absorbance detector.

[1] = Stability III: accelerated aging at 40° C., 3 or 6 weeks, HPLC recovery; format: physicochemical
Protocol: Recovery of the target compound was assessed by HPLC, and the values as a percentage of the reference sample are reported in Table 14 and in FIG. 5.

HEK-Blue Null2 cells = assay: TLR- control cell line HEK-Blue Null2 (control for mouse TLR2); format: cell-based
Protocol: as §3

HEK-Blue Null1 cells = assay: TLR- control cell line HEK-Blue Null1 (control for human TLR2); format: cell-based
Protocol: as §3

mouse TLR2 = molecular target: T2, mouse TLR2 (Mus musculus, UniProt Q9QUN7); assay: HEK-Blue mTLR2 dose response (SEAP reporter); format: cell-based
T2 construct: expressed in transfected cells; host or cells: HEK-Blue mTLR2 cells
T2 sequence (Q9QUN7 25-784): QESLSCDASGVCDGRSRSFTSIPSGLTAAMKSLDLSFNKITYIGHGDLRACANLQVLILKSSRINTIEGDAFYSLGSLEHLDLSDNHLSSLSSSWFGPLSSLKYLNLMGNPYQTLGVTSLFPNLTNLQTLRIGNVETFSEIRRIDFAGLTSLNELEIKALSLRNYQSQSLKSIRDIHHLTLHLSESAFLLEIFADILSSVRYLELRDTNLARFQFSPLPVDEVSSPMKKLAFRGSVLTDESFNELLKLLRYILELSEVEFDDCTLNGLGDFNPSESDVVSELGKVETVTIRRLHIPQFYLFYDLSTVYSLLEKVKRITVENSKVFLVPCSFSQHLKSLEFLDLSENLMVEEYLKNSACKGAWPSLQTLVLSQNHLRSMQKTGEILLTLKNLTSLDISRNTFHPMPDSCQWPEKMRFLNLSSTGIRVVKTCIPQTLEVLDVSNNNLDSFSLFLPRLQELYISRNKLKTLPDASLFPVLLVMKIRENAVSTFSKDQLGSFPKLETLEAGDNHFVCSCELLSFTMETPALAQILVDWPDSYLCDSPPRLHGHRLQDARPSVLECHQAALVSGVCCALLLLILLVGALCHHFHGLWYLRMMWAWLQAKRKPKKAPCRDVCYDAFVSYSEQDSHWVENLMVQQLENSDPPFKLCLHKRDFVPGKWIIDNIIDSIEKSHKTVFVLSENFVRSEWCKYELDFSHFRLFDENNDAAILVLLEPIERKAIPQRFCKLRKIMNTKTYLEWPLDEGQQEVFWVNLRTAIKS
T2 sequence (Q9Y2C9 32-796 partner): as the sequence (Q9Y2C9 32-796 partner) above
Protocol: as §1, §2, §3

| Average optical density (650 nm) (human TLR2; 0.12 pg/mL) | optical density (650 nm) (human TLR2; 0.12 pg/mL) | Average optical density (650 nm) (human TLR2; 0.49 pg/mL) | optical density (650 nm) (human TLR2; 0.49 pg/mL) | Average optical density (650 nm) (human TLR2; 1.95 pg/mL) | optical density (650 nm) (human TLR2; 1.95 pg/mL) | Average optical density (650 nm) (human TLR2; 7.81 pg/mL) | optical density (650 nm) (human TLR2; 7.81 pg/mL) | Average optical density (650 nm) (human TLR2; 31.25 pg/mL) | optical density (650 nm) (human TLR2; 31.25 pg/mL) | Average optical density (650 nm) (human TLR2; 125 pg/mL) | optical density (650 nm) (human TLR2; 125 pg/mL) | Average optical density (650 nm) (human TLR2; 500 pg/mL) | optical density (650 nm) (human TLR2; 500 pg/mL) | stimulatory / agonist activity for hTLR2 (in words) (human TLR2) | fold induction at 120 fg/mL (human TLR2; 0.12 pg/mL) | fold induction at 490 fg/mL (human TLR2; 0.49 pg/mL) | fold induction at 1.95 pg/mL (human TLR2; 1.95 pg/mL) | fold induction at 7.81 pg/mL (human TLR2; 7.81 pg/mL) | fold induction at 31.25 pg/mL (human TLR2; 31.25 pg/mL) | SMILES | also measured |
| --- | --- | --- | --- | --- | --- | --- | --- | --- | --- | --- | --- | --- | --- | --- | --- | --- | --- | --- | --- | --- | --- |
| 0.823 | 0.826 and 0.869 and 0.774 | 1.342 | 1.256 and 1.364 and 1.406 | 2.018 | 1.994 and 2.061 and 2.000 | 2.562 | 2.569 and 2.545 and 2.571 | 2.744 | 2.820 and 2.720 and 2.691 | 2.814 | 2.928 and 2.800 and 2.713 | 2.759 | 2.722 and 2.765 and 2.791 | stimulatory activity | 18.7 | 25.5 | 28 | 33 | 33.7 | CCCCCCCCCCCCCC[C@@H](C)C(=O)OCC[C@H](CSC[C@H](N)C(=O)N[C@@H](CO)C(=O)NCCOCCOCCOCCOCCOCCOCCOCCOCCOCCOCCOCCOCCOCCOCCOCCOCCOCCOCCOCCOCCOCCOCCOCCOCCOCCOCCOCCOCCC(=O)NCC(N)=O)OC(=O)[C@H](C)CCCCCCCCCCCCCC [Compound B14] | fold induction at 0.000125 µg/mL (human TLR2; 125 pg/mL): 35.2; fold induction at 0.0005 µg/mL (human TLR2; 500 pg/mL): 33.9; EC50 (human TLR2): 0.264 nM; stability under accelerated storage conditions (in words) [1]: excellent stabilities; stimulatory response in HEK-Blue Null2 (mouse) cells (in words) (HEK-Blue Null2 cells): not observed; stimulatory response in HEK-Blue Null1 (human) cells (in words) (HEK-Blue Null1 cells): not observed; stimulatory / agonist activity for mTLR2 (in words) (mouse TLR2): stimulatory activity |
| 0.666 | 0.688 and 0.591 and 0.718 | 1.099 | 1.080 and 1.097 and 1.121 | 1.521 | 1.478 and 1.513 and 1.573 | 1.978 | 1.903 and 1.897 and 2.133 | 2.252 | 2.093 and 2.297 and 2.367 | 2.540 | 2.531 and 2.544 and 2.545 | 2.475 | 2.466 and 2.488 and 2.472 | stimulatory activity | 9.2 | 15.3 | 21.1 | 27.5 | 31.3 | CCCCCCCCCCCCCC[C@H](C)C(=O)OCC[C@H](CSC[C@H](N)C(=O)N[C@@H](CO)C(=O)NCCOCCOCCOCCOCCOCCOCCOCCOCCOCCOCCOCCOCCOCCOCCOCCOCCOCCOCCOCCOCCOCCOCCOCCOCCOCCOCCOCCOCCC(=O)NCC(N)=O)OC(=O)[C@@H](C)CCCCCCCCCCCCCC [Compound B16] | fold induction at 0.000125 µg/mL (human TLR2; 125 pg/mL): 35.3; fold induction at 0.0005 µg/mL (human TLR2; 500 pg/mL): 34.4; EC50 (human TLR2): 0.504 nM; stability under accelerated storage conditions (in words) [1]: excellent stabilities; stimulatory response in HEK-Blue Null2 (mouse) cells (in words) (HEK-Blue Null2 cells): not observed; stimulatory response in HEK-Blue Null1 (human) cells (in words) (HEK-Blue Null1 cells): not observed; stimulatory / agonist activity for mTLR2 (in words) (mouse TLR2): stimulatory activity |
